Target: T1, Human transthyretin (TTR) thyroxine binding sites (Homo sapiens, UniProt P02766)
T1 construct: purchased SCIPAC (Sittingbourne, Kent, UK) P171-1
Assay: TTR CZE Free Probe Peak Height Restoration (FPPHR) assay, 8-ANS displacement
Method: CZE assays development and fragment screening were performed on a Beckman P/ACE MDQ capillary electrophoresis system (Beckman Coulter Inc., Brea, CA) operated by 32 Karat™ software. All capillaries (Polymicro Technologies, Phoenix, AZ) used were internally coated with polyvinyl alcohol and of around 30 cm in length, 75 microns in internal diameter. Capillary temperature was maintained at 20 °C by recirculating fluorinated fluid coolant during electrophoresis. Sample trays and buffer trays temperature were maintained at 4°C and ambient respectively. For every electrophoretic run, the capillary was pressure rinsed and prefilled with electrophoresis buffer also known as background electrolyte (termed as Running Buffer hereafter) before injection. After each electrophoretic run, the capillary was rinsed with Running Buffer and H2O by pressure (20 psi for 1 minute). Three Running Buffers (RB), A: 20 mM Tris pH 7.5, 1 mM KCl, 1.62 mM NaCl; B: 20 mM HEPES pH 7.0, 2 mM CaCl2 and C: 20 mM HEPES pH 7.0, 2 mM CaCl2, 1% DMSO were used. All CE traces were analysed by 32Karat™ Software with a built-in automatic peak integration algorithm.
Control 1 Inject Buffer (IB) containing 30 μM 8-ANS was prepared by mixing 1 μL of 3 mM 8-ANS DMSO stock with 99 μL of Running Buffer B in a 0.2 mL PCR tube. Control 2 Inject Buffer was prepared by mixing 1μL of 3 mM 8-ANS DMSO stock with 20 μL of 100 μM tetrameric TTR stock in Running Buffer B and 79 μL of Running Buffer B. The final concentrations (f/c) were 8-ANS 30 μM, TTR 20 μM and 1% DMSO v/v.
The maximum Free Probe Peak Height (Control 1 Peak Height) was determined by Outlet Injection (see Fig 1) of Control 1 with an injection pressure of 0.5 psi for 5 seconds (equivalent to ≈ 20–30 nL). An identical injection of Control 2 provides the minimum Free Probe Peak Height (Control 2 Peak Height) enabling calculation of % of bound and unbound, i.e., free 8-ANS. To determine the 8-ANS peak height in Control 1 and Control 2, the capillary was prefilled with Buffer C and electrophoresis carried out at 10 kV (Normal Polarity, Fig 1) with UV monitoring at 230 nm. For displacement analysis, ligand DMSO stock was diluted in Buffer B and used to fill the capillary as the Running Buffer. Electrophoresis commenced after injection of Control 2, thus the injected 8-ANS-TTR complex migrates inside a capillary filled with the test ligand. The observed 8-ANS peak height is defined as Sample Peak Height and the displaced 8-ANS can be calculated as:
\% of Free Probe Peak Height Restoration= Sample Peak Height−Control 2 Peak Height/Control 1 Peak Height−Control 2 Peak Height

SMILES: c1ccc2c(-c3cn[nH]c3)ccnc2c1 [SFL001535, 4-(3H-pyrazol-4-yl)quinoline]
- FPPHR % tested at 10 µM (compound 10 µM in Running Buffer, 10% minimum for a binder): 34.10% tested at 10 µM
- FPPHR % at 100 μM (compound 100 μM in Running Buffer, 10% minimum for a binder): 64.23%
- inhibition at 50 µM (read-out: FPPHR % at 50 μM): 60.5%
